Here are results for 2 molecules from US20250041277A1, “METHODS AND DOSING REGIMENS COMPRISING A CDK2 INHIBITOR AND A CDK4 INHIBITOR FOR TREATING CANCER” (PFIZER INC., priority 2021, published 2025).

Assay [1] relates to HCC1428 breast cancer model. Nature of the assay: In vivo efficacy, HR+/HER2− HCC1428 breast cancer model (Example 3). The arrangement: species or system NSG mice. The following applies: HCC1428, Day 42; PO BID: PF-07104091 150 mpk, PF-07220060 60 mpk, palbociclib 10 mpk. How it is done:
(§1) Female NSG mice (Jackson Lab) were subcutaneously implanted with fragment (27 mm^3 to 64 mm^3 size) into the dorsal region. All mice for T47D, HCC1428 and ST941 PBR studies were supplemented with 8.5 μg/mL estradiol water (β-Estradiol Sigma-Aldrich, cat #E2758-5G) and gave ad libitum till end of study. For the in vivo efficacy studies, tumor volume and body weights were measured twice a week. Tumor volume was calculated using the [(Length×Width×Width)/2)] formula. TGI was calculated as 100*(1−ΔT/ΔC). The ΔC (ΔT) was obtained by subtracting the mean tumor burden in the vehicle (treated) group on the first day of treatment (Day 0) from the mean tumor burden in vehicle (treated) group on the assessment day. Statistical analysis was performed using ANCOVA when the mean tumor volume in vehicle treated mice reached tumor cutoff size.
(§2) The HCC1428 model was established by implanting passage 4 tumor fragments into recipient mice. To establish the HCC1428 donor mice, tumor cells (5×10^6 cell/mouse with 50% Cultrex® Basement Membrane Matrix) were subcutaneously implanted in female NSG mice. Once reaching a range of 700 to 800 mm^3, donor tumors were subsequently transplanted into secondary recipient mice for a study expansion. […] PF-07104091 (lot 016), PF-07220060 (lot 019) and PD-0332991 (lot GR08498) were administered (PO.) BID (7 hr apart). All mice received treatment continuously until Day 42. TGI was assessed on Day 42 post first dose.

The subject of assay [2] is NCI-H1792 lung adenocarcinoma (LUAD) cells. The experiment in a line: Spheroid growth inhibition (SGI) assay, NCI-H1792. The conditions noted are these: NCI-H1792 spheroids; 30 nM palbociclib, 300 nM PF-07220060, 300 nM PF-07104091; 14 days. The class given is cell-based. The method, then: (§3) NCI-H1792 and NCI-H23 lung adenocarcinoma (LUAD) cells lines were obtained from ATCC and maintained in RPMI 1640 medium supplemented with 10% fetal bovine serum and penicillin-streptomycin as per ATCC guidelines. Cells were maintained in humidified incubator at 37° C. with 5% CO2.
(§4) Spheroid assays were performed in 96 well ultralow attachment plates (ULA-96U) from Nexcelom & Thermo Fisher Scientific. […] To aid spheroid formation, dispensed cells were centrifuged at 220×g for 6 minutes in the ultralow attachment plates and allowed to form compact spheroids for 4 days prior to the initiation of treatment. […] DMSO (0.01%) was used as the vehicle control. DMSO and all compounds were diluted in cell medium. Medium and compounds were replenished twice per week, with 3 and 4-day intervals. Replenishment was executed by aspirating 150 μL of medium per well without disturbing the spheroid and then adding the same volume of premixed medium/compound solution to spheroids. Spheroid diameter was quantified immediately following each medium change twice a week (on every 3rd or 4th day) throughout the duration of the assay.
(§5) Average diameters of tumor spheroids were plotted in GraphPad Prism 8 and the AUC calculated. AUC baseline was determined by the average tumor spheroid diameter at Day 0 in the vehicle (DMSO) controls. Spheroid growth inhibition, or SGI, was calculated as follows: SGI=(1−AUC treatment/AUC DMSO)×100%. SGI for all treatment arms was derived at the timepoint when the vehicle (DMSO) treated spheroids reach their maximal diameter (usually close to 1 mm but this can differ among cell lines); this corresponds to the last time point taken for the vehicle (DMSO) treated spheroids. SEM was calculated based on n=10 to 12 wells per test group.
(§6) Growth of lung adenocarcinoma multicellular tumor spheroids (MCTS) was monitored over time to assess: (i) amplitude of response (SGI) and (ii) duration of response to the CDK4 inhibitor PF-07220060 as a single agent, and in combination with the CDK2 inhibitor PF-07104091.

Assay [3] relates to NCI-H23 lung adenocarcinoma (LUAD) cells. The experiment in a line: Spheroid growth inhibition (SGI) assay, NCI-H23. Type of assay: cell-based. The following applies: NCI-H23 spheroids; 30 nM palbociclib, 300 nM PF-07220060, 300 nM PF-07104091; 14 days. How it is done: as §3, §4, §5, §6
Assay [4] has as its system ST941 PBR PDX model. The experiment in a line: In vivo efficacy, palbociclib-resistant ST941 PBR PDX model (Example 3). On the set-up: species or system NSG mice. The following applies: ST941PBR, Day 28; PO BID: PF-07104091 150 mpk, PF-07220060 60 mpk, palbociclib 10 mpk; fulvestrant 10 mpk SC 2x week 1 then weekly. The method, then:
as §1
(§7) We established model in house by continuous treatment of the ST941 PBR tumor bearing mice with PD-0332991 at 50 mg/kg, PO QD plus fulvestrant at 10 mg/kg, SC twice in the first week, then weekly thereafter. To propagate donors for the TGI study, tumors were transplanted to recipient mice. One week after the re-implantation, the recipient mice received continuous treatment with palbociclib plus fulvestrant (dosing schedule described above). After 1 to 2 serial in vivo propagation with the same treatment regimen, the resistant tumors in the range of 700 to 800 mm^3 were re-implanted for a study expansion. The remaining tumor fragments were viably frozen for future use.
The live donor mice were established by implanting ST941 PBR (p11) tumor fragments. Once reaching a range of 700 to 800 mm^3, the donor tumors were subsequently transplanted into secondary recipient mice for a study expansion. To maintain the resistant clones, the ST941 PBR tumor bearing mice were treated with PD-0332991 at 50 mg/kg, PO. QD plus fulvestrant at 10 mg/kg, SC twice in the first week, then weekly afterwards for 10 weeks. The treatment was initiated one week after the implant until day of randomization for study enrollment. […] TGI was assessed on Day 28 post first dose.

The next assay concerns T47D breast cancer model. Nature of the assay: In vivo efficacy, HR+/HER2− T47D breast cancer model (Example 3). The conditions noted are these: Day 41, PO BID: PF-07104091 150 mpk, PF-07220060 60 mpk, palbociclib 10 mpk. The arrangement: species or system NSG mice. How it is done:
as §1
as §2, with “The T47D” for “The HCC1428”, “passage 3” for “passage 4”, “the T47D” for “the HCC1428”, “Day 41.” for “Day 42.”, “Day 41” for “Day 42”

A further assay has as its system MCF7 breast cancer model. The experiment in a line: In vivo efficacy, HR+/HER2− MCF7 breast cancer model (Example 4). On the set-up: species or system NSG mice. The following applies: MCF7, Day 29; PO BID: PF-07104091 120 mpk, PF-07220060 60 mpk, PF-06873600 30 mpk, palbociclib 10 mpk; fulvestrant 10 mpk SC. The method, then:
as §1, with “HCC1428, MCF7” for “T47D, HCC1428”
(§8) The MCF7 model was established by implanting donor tumor fragments into recipient mice. To establish the MCF7 donor mice, tumor cells (5×10^6 cell/mouse with 50% Cultrex® Basement Membrane Matrix) were subcutaneously implanted in female NSG mice. Once reaching a range of 700 to 800 mm^3, donor tumors were subsequently transplanted into secondary recipient mice for a study expansion. […] PF-07104091 (lot 022), PF-07220060 (lot CPo126812-01-SY-5700-01), PF-06873600 (lot 022) and PD-0332991 (lot GR08498) were administered (PO) BID (7 hr apart) while fulvestrant (lot 20160224-2) at 10 mg/kg, SC twice in the first week, then weekly afterwards. All mice received treatment continuously until Day 29. TGI was assessed on Day 29 post first dose

In assay [5] the test system is HCC1428 breast cancer model. The experiment in a line: In vivo efficacy, HR+/HER2− HCC1428 breast cancer model (Example 4). The arrangement: species or system NSG mice. The following applies: HCC1428, Day 42; PO BID: PF-07104091 120 mpk, PF-07220060 60 mpk, PF-06873600 30 mpk, palbociclib 10 mpk; fulvestrant 10 mpk SC. The method, then:
as §1, with “HCC1428, MCF7” for “T47D, HCC1428”
as §8, with “The HCC1428” for “The MCF7”, “implanting passage 1” for “implanting donor”, “the HCC1428” for “the MCF7”, “Day 42.” for “Day 29.”, “Day 42” for “Day 29”, “first dose.” for “first dose”

Assay [6] deals with ST941 PBR PDX model. The experiment in a line: In vivo efficacy, palbociclib-resistant ST941 PBR PDX model (Example 4). On the set-up: species or system NSG mice. The conditions noted are these: ST941PBR, Day 28, PO BID: PF-07104091 120 mpk, PF-07220060 60 mpk, PF-06873600 30 mpk, palbociclib 10 mpk, fulvestrant 10 mpk SC. The method, then:
as §1, with “HCC1428, MCF7” for “T47D, HCC1428”
as §7
The live donor mice were established by implanting ST941 PBR (p13) tumor fragments. Once reaching a range of 700 to 800 mm^3, the donor tumors were subsequently transplanted into secondary recipient mice for a study expansion. To maintain the resistant clones, the ST941 PBR tumor bearing mice were treated with PD-0332991 at 50 mg/kg, PO. QD plus fulvestrant at 10 mg/kg, SC twice in the first week, then weekly afterwards for 10 weeks. The treatment was initiated one week after the implant until day of randomization for study enrollment. […] PF-07104091 (lot 021), PF-07220060 (lot CPo126812-01-SY-5700-01), PF-06873600 (lot 022) and PD-0332991 (lot GR08498) were administered (PO) BID (7 hr apart) while fulvestrant (lot 20160224-2) at 10 mg/kg, SC twice in the first week, then weekly afterwards. All mice received treatment continuously until Day 28. TGI was assessed on Day 28 post first dose.

Marks after values point to notes of the source that are not given here.

Take `CC(=O)c1c(C)c2cnc(Nc3ccc(N4CCNCC4)cn3)nc2n(C2CCCC2)c1=O` [palbociclib, reference compound]: the TGI % is recorded as 44^* % in assay [1], 15% in the assay with ST941 PBR PDX model [4] and 72^* % with T47D breast cancer model. In addition, the “SGI (%)” value came to 54% in assay [2] and 9% in assay [3].

In the case of `C[C@@]1(O)CCC[C@H]1n1c(=O)c(C(F)F)cc2cnc(NC3CCN(S(C)(=O)=O)CC3)nc21` [PF-06873600, reference compound], the TGI % in the assay on MCF7 breast cancer model is listed as 70%; in assay [5], 97%; in the assay on ST941 PBR PDX model [6], 47^* %; with ST941 PBR PDX model [6] (listed as PF-0873600) it was 47%.
